The source of these data is patent US20070179295A1, “Triazolopyrimidines” (priority 2003, published 2007).

A short description of one series: logP determination through HPLC (EEC directive 79/831 Annex V. A8, gradient method, acetonitrile/0.1% aqueous phosphoric acid). In kind it is physicochemical. To be noted: HPLC.
On to `FC(F)(F)c1cccnc1-c1c(Cl)nc2nc(C3CC3)nn2c1Cl` [Example 114], for which the chromatographic logP – broadly, lipophilicity estimated from chromatographic retention – was 2.73.

Take `Cc1nc2nc(Cl)c(-c3ncncc3Cl)c(Cl)n2n1` [Example 115, 5,7-dichloro-6-(5-chloro-4-pyrimidinyl)-2-methyl[1,2,4]-triazolo[1,5-a]pyrimidine]: the chromatographic logP was 1.58.

`Oc1nc2nc(C3CC3)nn2c(O)c1-c1ncccc1C(F)(F)F` [Example 124, 6-(3-trifluoromethyl-pyridin-2-yl)-2-cyclopropyl[1,2,4]triazolo[1,5-a]-pyrimidin-5,7-diol]: the chromatographic logP is 0.47.

Still in this series, the particulars now being: Table 1, compounds of formula (I); HPLC gradient method, acetonitrile/0.1% aqueous phosphoric acid.
Regarding `CC(Nc1c(-c2scnc2Cl)c(Cl)nc2nc(C3CC3)nn12)C(F)(F)F` (centres unmarked) [Example 91], the logP (as a rule, a log measure of how a compound divides between an organic and an aqueous phase) is listed as 2.94.

The molecule `CC(C)C(C)Nc1c(-c2scnc2Cl)c(Cl)nc2nc(C3CC3)nn12` (centres unmarked) [Example 92] returned a log partition coefficient (logP) of 3.23.

Take `CC1CCN(c2c(-c3ncncc3Cl)c(Cl)nc3nc(C4CC4)nn23)CC1` [Example 94]: the logP was determined as 3.30.

`CC1CCCCN1c1c(-c2ccsc2)c(Cl)nc2nc(C3CC3)nn12` (centres unmarked) [Example 95] returned a logP of 4.07.

In turn, `CC(C)c1nc2nc(Cl)c(-c3ncncc3F)c(NC(C)C(C)(C)C)n2n1` (centres unmarked) [Example 100] yielded a logP of 3.47.

Molecule `CC(C)c1nc2nc(Cl)c(-c3ncncc3F)c(NC(C)C(C)C)n2n1` (centres unmarked) [Example 101] showed a logP of 3.02.

Consider `CC(C)c1nc2nc(Cl)c(-c3ncncc3F)c(NC(C)C(F)(F)F)n2n1` (centres unmarked) [Example 102], for which the logP was 2.78.

Take `CC(Nc1c(-c2ncncc2F)c(Cl)nc2nc(C3CC3)nn12)C(C)(C)C` (centres unmarked) [Example 103]: the logP was 3.18.

`CC(C)C(C)Nc1c(-c2ncncc2F)c(Cl)nc2nc(C3CC3)nn12` (centres unmarked) [Example 104] displayed a lipophilicity (logP) of 2.79.

Take `CC(Nc1c(-c2ncncc2F)c(Cl)nc2nc(C3CC3)nn12)C(F)(F)F` (centres unmarked) [Example 105]: the logP came out at 2.57.

`CC1CCN(c2c(-c3ncncc3F)c(Cl)nc3nc(C4CC4)nn23)CC1` [Example 106] had a logP of 3.02.

`Cc1nc2nc(Cl)c(-c3ncncc3F)c(NC(C)C(C)(C)C)n2n1` (centres unmarked) [Example 107] had a logP of 2.54.

`Cc1nc2nc(Cl)c(-c3ncncc3F)c(NC(C)C(C)C)n2n1` (centres unmarked) [Example 108] came in with a log partition coefficient (logP) of 2.21.

Molecule `Cc1nc2nc(Cl)c(-c3ncncc3F)c(NC(C)C(F)(F)F)n2n1` (centres unmarked) [Example 109] registered a logP of 2.03.

With `CC(C)c1nc2nc(Cl)c(-c3ncc(C(F)(F)F)cc3Cl)c(NC(C)C(F)(F)F)n2n1` (centres unmarked) [Example 111], the logP is given as 3.95.

`CC(C)c1nc2nc(Cl)c(-c3ncc(C(F)(F)F)cc3Cl)c(NC(C)C(C)C)n2n1` (centres unmarked) [Example 112]: the logP worked out at 4.32.

Staying with this series, now noted: Table 2, precursors of formula (II).
With `Clc1cncnc1-c1c(Cl)nc2nc(C3CC3)nn2c1Cl` [Example 116], the logP stood at 2.23.

`Cc1nc2nc(Cl)c(-c3cncnc3C(F)(F)F)c(Cl)n2n1` [Example 117] returned a logP of 2.10.

Take `Clc1nc2nc(C3CC3)nn2c(Cl)c1-c1ccccn1` [Example 118]: the logP is 1.88.

For `O=[N+]([O-])c1cccc(-c2c(Cl)nc3nc(C4CC4)nn3c2Cl)n1` [Example 119], the logP worked out at 2.91.

In turn, `Cc1nc2nc(Cl)c(-c3ncccc3[N+](=O)[O-])c(Cl)n2n1` [Example 120] displayed a logP of 1.68.

Staying with this series, now noted: Table 3, precursors of formula (IV).
`Cc1nc2nc(O)c(-c3ncccc3C(F)(F)F)c(O)n2n1` [Example 126] showed a logP of −0.03.

Take `Oc1nc2nc(C3CC3)nn2c(O)c1-c1ncncc1Cl` [Example 127]: the logP is recorded as −0.07.
